From ChEMBL document CHEMBL1201862, “PubChem BioAssay data set” (2004)
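Grown in 96-well plates, cells were treated for 48 hours with each compound at five concentrations. Insufficient inhibition: endpoint recorded as highest concentration tested. GI50: concentration for 50% inhibition of growth.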 Calls of active or inactive are those of the source. No stated cut-off is given here; in the data, active = GI50 up to about 1.1 µM and inactive = higher.

What was measured:
Test in all cases: DTP human tumour cell line panel, 48 h
HCT-116 = test system: HCT-116
MOLT-4 = test system: MOLT-4
SNB-19 = test system: SNB-19
OVCAR-8 = test system: OVCAR-8
HL-60 = test system: HL-60
Malme-3M = test system: Malme-3M
A549 = test system: A549
MCF7 = test system: MCF7
NCI-H23 = test system: NCI-H23
DU-145 = test system: DU-145
OVCAR-5 = test system: OVCAR-5
K562 = test system: K562
RPMI-8226 = test system: RPMI-8226
SF-539 = test system: SF-539
HCC 2998 = test system: HCC 2998
UACC-62 = test system: UACC-62
NCI-H226 = test system: NCI-H226
SK-MEL-28 = test system: SK-MEL-28
RXF 393 = test system: RXF 393
NCI/ADR-RES = test system: NCI/ADR-RES

CN(C)CC1CCC/C(=C\c2ccc(OC(=O)/C=C/c3ccc(Cl)c(Cl)c3)cc2)C1=O (stereo not given)
GI50 (HCT-116): 3.49 µM (inactive) | GI50 (MOLT-4): 1.66 µM (inactive) | GI50 (SNB-19): 10.5 µM (inactive) | GI50 (OVCAR-8): 3.92 µM (inactive) | GI50 (HL-60): 0.796 µM (active) | GI50 (Malme-3M): 5.4 µM (inactive) | GI50 (A549): 5.86 µM (inactive) | GI50 (MCF7): 0.857 µM (active) | GI50 (NCI-H23): 3.77 µM (inactive) | GI50 (DU-145): 8.97 µM (inactive) | GI50 (OVCAR-5): 20.5 µM (inactive) | GI50 (K562): 1.94 µM (inactive) | GI50 (RPMI-8226): 0.164 µM (active) | GI50 (SF-539): 2.59 µM (inactive) | GI50 (HCC 2998): 2.92 µM (inactive) | GI50 (UACC-62): 12.3 µM (inactive) | GI50 (NCI-H226): 1.71 µM (inactive) | GI50 (SK-MEL-28): 7.8 µM (inactive) | GI50 (RXF 393): 1.88 µM (inactive) | GI50 (NCI/ADR-RES): 2.92 µM (inactive)

CSc1nc(NC2OCC(OC(C)=O)C(OC(C)=O)C2OC(C)=O)c(/N=C\C=N\c2c(NC3OCC(OC(C)=O)C(OC(C)=O)C3OC(C)=O)nc(SC)[nH]c2=O)c(=O)[nH]1 (stereo not given)
GI50 (HCT-116): > 80.2 µM (inactive) | GI50 (MOLT-4): > 100 µM (inactive) | GI50 (SNB-19): 46.3 µM (inactive) | GI50 (OVCAR-8): 46.7 µM (inactive) | GI50 (HL-60): > 100 µM (inactive) | GI50 (Malme-3M): > 100 µM (inactive) | GI50 (A549): > 100 µM (inactive) | GI50 (MCF7): 46.5 µM (inactive) | GI50 (NCI-H23): > 91 µM (inactive) | GI50 (DU-145): > 100 µM (inactive) | GI50 (OVCAR-5): > 71.8 µM (inactive) | GI50 (K562): > 100 µM (inactive) | GI50 (RPMI-8226): > 100 µM (inactive) | GI50 (SF-539): 43.7 µM (inactive) | GI50 (HCC 2998): > 100 µM (inactive) | GI50 (UACC-62): > 100 µM (inactive) | GI50 (NCI-H226): > 52.8 µM (inactive) | GI50 (SK-MEL-28): > 100 µM (inactive) | GI50 (RXF 393): 22.8 µM (inactive) | GI50 (NCI/ADR-RES): 34.3 µM (inactive)

OC(CC(CC(O)(C(F)(F)Cl)C(F)(F)Cl)=NNc1ccccc1)(C(F)(F)Cl)C(F)(F)Cl
GI50 (HCT-116): 1.98 µM (inactive) | GI50 (MOLT-4): > 10 µM (inactive) | GI50 (SNB-19): 4.01 µM (inactive) | GI50 (OVCAR-8): 2.9 µM (inactive) | GI50 (HL-60): > 10 µM (inactive) | GI50 (Malme-3M): 3.7 µM (inactive) | GI50 (A549): 3.41 µM (inactive) | GI50 (MCF7): 2.94 µM (inactive) | GI50 (NCI-H23): 2.41 µM (inactive) | GI50 (DU-145): 3.3 µM (inactive) | GI50 (OVCAR-5): 3.66 µM (inactive) | GI50 (K562): > 10 µM (inactive) | GI50 (RPMI-8226): > 10 µM (inactive) | GI50 (SF-539): 2.95 µM (inactive) | GI50 (HCC 2998): 4.23 µM (inactive) | GI50 (UACC-62): 1.66 µM (inactive) | GI50 (NCI-H226): 2.99 µM (inactive) | GI50 (SK-MEL-28): 2.92 µM (inactive) | GI50 (RXF 393): 2.8 µM (inactive) | GI50 (NCI/ADR-RES): 4.05 µM (inactive)

COc1cc2c(cc1Cc1c(F)cccc1Cl)nc(-c1c(F)cccc1Cl)n2Cc1c(F)cccc1Cl
GI50 (HCT-116): 20 µM (inactive) | GI50 (MOLT-4): 36 µM (inactive) | GI50 (SNB-19): 33.2 µM (inactive) | GI50 (OVCAR-8): 36.3 µM (inactive) | GI50 (HL-60): 78.5 µM (inactive) | GI50 (Malme-3M): 20 µM (inactive) | GI50 (A549): 20.7 µM (inactive) | GI50 (MCF7): 35.2 µM (inactive) | GI50 (NCI-H23): 19.8 µM (inactive) | GI50 (DU-145): 28.1 µM (inactive) | GI50 (OVCAR-5): 48.8 µM (inactive) | GI50 (K562): 45.3 µM (inactive) | GI50 (RPMI-8226): 13.7 µM (inactive) | GI50 (SF-539): 21 µM (inactive) | GI50 (HCC 2998): 17.5 µM (inactive) | GI50 (UACC-62): 56.4 µM (inactive) | GI50 (NCI-H226): 34 µM (inactive) | GI50 (SK-MEL-28): 65.6 µM (inactive) | GI50 (RXF 393): 77.3 µM (inactive) | GI50 (NCI/ADR-RES): 38.7 µM (inactive)

CS(=O)(=O)OCCN(CCOS(C)(=O)=O)c1ccc(/C=N/c2ccc3oc(=O)ccc3c2)cc1
GI50 (HCT-116): 37.7 µM (inactive) | GI50 (MOLT-4): 0.318 µM (active) | GI50 (SNB-19): 8.97 µM (inactive) | GI50 (OVCAR-8): 6.97 µM (inactive) | GI50 (HL-60): 1.71 µM (inactive) | GI50 (Malme-3M): 8.73 µM (inactive) | GI50 (A549): 3.47 µM (inactive) | GI50 (MCF7): 3.59 µM (inactive) | GI50 (NCI-H23): 2.04 µM (inactive) | GI50 (DU-145): 0.968 µM (active) | GI50 (OVCAR-5): 3.24 µM (inactive) | GI50 (K562): 24.6 µM (inactive) | GI50 (RPMI-8226): 6.53 µM (inactive) | GI50 (SF-539): 4.43 µM (inactive) | GI50 (HCC 2998): 1.61 µM (inactive) | GI50 (UACC-62): 1.8 µM (inactive) | GI50 (NCI-H226): 3.53 µM (inactive) | GI50 (SK-MEL-28): 12.9 µM (inactive) | GI50 (RXF 393): 0.553 µM (active) | GI50 (NCI/ADR-RES): 8.59 µM (inactive)

Cc1ccc(S(=O)(=O)NNCNC(=O)c2ccccc2)cc1
GI50 (HCT-116): > 100 µM (inactive) | GI50 (MOLT-4): 24.2 µM (inactive) | GI50 (SNB-19): > 100 µM (inactive) | GI50 (OVCAR-8): > 100 µM (inactive) | GI50 (HL-60): 16.4 µM (inactive) | GI50 (Malme-3M): > 100 µM (inactive) | GI50 (A549): > 100 µM (inactive) | GI50 (MCF7): > 100 µM (inactive) | GI50 (NCI-H23): > 100 µM (inactive) | GI50 (DU-145): > 100 µM (inactive) | GI50 (OVCAR-5): > 100 µM (inactive) | GI50 (K562): 64.4 µM (inactive) | GI50 (RPMI-8226): 76 µM (inactive) | GI50 (SF-539): > 100 µM (inactive) | GI50 (HCC 2998): > 100 µM (inactive) | GI50 (UACC-62): 71.6 µM (inactive) | GI50 (NCI-H226): > 100 µM (inactive) | GI50 (SK-MEL-28): > 100 µM (inactive) | GI50 (RXF 393): > 100 µM (inactive) | GI50 (NCI/ADR-RES): 54.6 µM (inactive)

Cc1ccc(C(=O)/C=C2/Nc3ccc([N+](=O)[O-])cc3N/C2=C/C(=O)c2ccc(C)cc2)cc1
GI50 (HCT-116): > 100 µM (inactive) | GI50 (MOLT-4): > 100 µM (inactive) | GI50 (SNB-19): 43.8 µM (inactive) | GI50 (OVCAR-8): 36 µM (inactive) | GI50 (HL-60): 34.7 µM (inactive) | GI50 (Malme-3M): > 100 µM (inactive) | GI50 (A549): > 100 µM (inactive) | GI50 (MCF7): 84.1 µM (inactive) | GI50 (NCI-H23): 37.7 µM (inactive) | GI50 (DU-145): > 100 µM (inactive) | GI50 (OVCAR-5): > 100 µM (inactive) | GI50 (K562): 85.5 µM (inactive) | GI50 (RPMI-8226): > 100 µM (inactive) | GI50 (SF-539): 52.8 µM (inactive) | GI50 (HCC 2998): > 100 µM (inactive) | GI50 (UACC-62): 24.7 µM (inactive) | GI50 (NCI-H226): > 100 µM (inactive) | GI50 (SK-MEL-28): > 100 µM (inactive) | GI50 (RXF 393): 36.6 µM (inactive) | GI50 (NCI/ADR-RES): 47.6 µM (inactive)
